US7410975B2, “Small molecule toll-like receptor (TLR) antagonists” (Coley Pharmaceutical Group, Inc., priority 2003, dated 2008)

Molecular target: T1, human TLR7 (hTLR7) (Homo sapiens, UniProt Q9NYK1)
T1 construct: expressed in transfected cells
T1 sequence (Q9NYK1 27-1049): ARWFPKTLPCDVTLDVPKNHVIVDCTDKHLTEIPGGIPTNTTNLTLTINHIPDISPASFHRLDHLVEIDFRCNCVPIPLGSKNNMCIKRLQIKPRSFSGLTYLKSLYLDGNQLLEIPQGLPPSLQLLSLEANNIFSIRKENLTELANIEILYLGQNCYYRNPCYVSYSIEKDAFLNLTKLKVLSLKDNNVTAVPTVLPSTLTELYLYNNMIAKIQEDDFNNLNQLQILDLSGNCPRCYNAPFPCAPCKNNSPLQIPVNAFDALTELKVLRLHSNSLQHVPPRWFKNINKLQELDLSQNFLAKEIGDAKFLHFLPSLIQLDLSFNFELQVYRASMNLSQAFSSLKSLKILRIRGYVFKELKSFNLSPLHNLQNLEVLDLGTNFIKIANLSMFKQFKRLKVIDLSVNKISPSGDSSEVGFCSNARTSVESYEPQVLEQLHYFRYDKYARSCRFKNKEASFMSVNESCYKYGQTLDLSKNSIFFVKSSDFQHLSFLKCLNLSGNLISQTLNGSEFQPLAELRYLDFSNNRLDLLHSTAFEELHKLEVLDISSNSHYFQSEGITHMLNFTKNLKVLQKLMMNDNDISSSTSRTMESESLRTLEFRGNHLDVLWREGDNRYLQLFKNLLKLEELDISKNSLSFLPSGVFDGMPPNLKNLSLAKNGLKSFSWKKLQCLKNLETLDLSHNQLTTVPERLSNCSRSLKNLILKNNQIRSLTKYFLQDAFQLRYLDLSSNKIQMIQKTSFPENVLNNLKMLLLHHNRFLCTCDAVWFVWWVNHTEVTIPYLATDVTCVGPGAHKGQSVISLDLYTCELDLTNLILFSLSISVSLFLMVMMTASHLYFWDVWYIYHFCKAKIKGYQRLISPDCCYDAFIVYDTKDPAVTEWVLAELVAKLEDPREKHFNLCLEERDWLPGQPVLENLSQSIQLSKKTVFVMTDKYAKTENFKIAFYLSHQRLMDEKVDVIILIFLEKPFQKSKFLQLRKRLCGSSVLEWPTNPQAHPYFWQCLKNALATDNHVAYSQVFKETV
Experiment: Antagonist screen, hTLR7-NFκB-293 cells, NF-κB-luciferase reporter, with EC50 of R848
Type: cell-based
Conditions: compound at 0.5, 5, 50 μg/ml; EC50 concentration of R848; 16 h; NF-κB-luciferase
Description: The method is described in greater detail as follows. The cells for each individual cell clone (hTLR3-NFκB-293, hTLR7-NFκB-293, hTLR8-NFκB-293 and hTLR9-NFκB-293) were counted and seeded one day before the stimulation at 1.5×10^4 cells per well in 96-well cell culture plates. To become adherent the cells were incubated after seeding overnight at 37° C. in 5% CO2 humidified air.
The screen for each compound was performed at the same time for all of the receptors TLR3, TLR7, TLR8 and TLR9. Up to fifteen test compounds, each assayed in duplicate at each of three different final concentrations (0.5 μg/ml, 5 μg/ml, and 50 μg/ml), were used for 16 h cell stimulation on a single multiwell culture plate. A 4× final concentration master plate was created to prepare the different test compounds before they were added to the cells.
Controls were added as duplicates individually for each cell clone on the cell culture plate. Positive controls were used as follows (final concentrations): 50 μg/ml poly(I:C) for hTLR3-NFκB-293; 8 μM resiquimod (R848) for hTLR7-NFκB-293; 30 μM R848 for hTLR8-NFκB-293; and 2.5 μM CpG-ODN 2006 for hTLR9-NFκB-293. Media alone was used as negative control. After addition of controls and small molecules, the cell clones were additionally stimulated with the EC50 concentration of the appropriate receptor-specific ligand.
The mean value of wells H2 and H5 (each with cells and EC50 concentration of the appropriate receptor-specific ligand) divided by the mean of wells H3 and H6 (each with cells alone) yielded the baseline response (i.e., fold induction of luciferase activity) to EC50 concentration of the appropriate receptor-specific ligand.
After 16 h stimulation the supernatant was removed and the cells treated with lysis buffer and stored at −80° C. before measuring.
For each screen result a graphical documentation was performed.
The baseline result (measured with addition of the EC50 concentration of the receptor-specific ligand) for each cell culture plate was measured as described above. Antagonistic effects were measured by down regulation compared to the baseline. Antagonists were scored as follows: • 13: compounds for which there was clear down regulation at 0.5 μg/ml, 5 μg/ml, and 50 μg/ml; • 12: compounds for which there was clear down regulation at 5 μg/ml and 50 μg/ml; • 11: compounds for which there was clear down regulation only at 50 μg/ml; • —: compounds for which there was no clear down regulation even at 50 μg/ml. Agonists
Results were expressed as fold induction over baseline luciferase activity measured in the absence of R848. […] Additional screening was performed in like manner using additional small molecules selected from another library or specifically prepared for this purpose. Scoring is reported as above but as applied to TLR7.

Row | Compound | hTLR7 (inhibitory effect, antagonist score)
1 | Cc1cc(OC(=O)C2C3CCCCC32)c(C(C)C)cc1C1(c2cc(C(C)C)c(OC(=O)C3C4CCCCC43)cc2C)OC(=O)c2ccccc21 (centres unmarked) [compound 974] | 11 (compounds for which there was clear down regulation only at 50 μg/ml)
2 | CCN(CC)CCCN(CC(=O)C1c2ccc(Cl)cc2NC(=O)c2ccccc21)C(=O)c1ccccc1 (centres unmarked) [compound 1013] | — (compounds for which there was no clear down regulation even at 50 μg/ml)
3 | O=C1c2ccccc2C(=O)c2c1ccc1c(=O)n(C3CCCCC3)[nH]c21 [compound 1015] | — (compounds for which there was no clear down regulation even at 50 μg/ml)
4 | CCOC(=O)c1cc([N+](=O)[O-])cc2c1-c1ccc([N+](=O)[O-])cc1C2=C(C#N)C#N [compound 1039] | 11 (compounds for which there was clear down regulation only at 50 μg/ml)
5 | O=C1c2ccccc2C(=O)c2c1ccc1c(=O)n(-c3ccccc3)[nH]c21 [compound 1042] | 12 (compounds for which there was clear down regulation at 5 μg/ml and 50 μg/ml)
6 | O=C(c1cccc2c1-c1ccccc1/C2=N\O)N1CCCCC1 [compound 1050] | 12 (compounds for which there was clear down regulation at 5 μg/ml and 50 μg/ml)
7 | NC(=O)c1cccc2c1-c1ccccc1C2 [compound 1132] | 11 (compounds for which there was clear down regulation only at 50 μg/ml)
8 | NC(=O)c1cc(N)c2c(c1N)C(=O)c1ccccc1C2=O [compound 1158] | — (compounds for which there was no clear down regulation even at 50 μg/ml)
9 | CC(=O)Oc1cc(C)c(C2(c3cc(C(C)C)c(OC(C)=O)cc3C)OC(=O)c3ccccc32)cc1C(C)C [compound 1161] | 12 (compounds for which there was clear down regulation at 5 μg/ml and 50 μg/ml)
10 | COC(=O)c1cccc(C(O)(c2ccccc2)c2ccccc2)c1S(=O)(=O)C(C)(C)C [compound 1187] | 12 (compounds for which there was clear down regulation at 5 μg/ml and 50 μg/ml)
11 | CCOCCOC(=O)c1cc([N+](=O)[O-])cc2c1-c1c(cc([N+](=O)[O-])cc1[N+](=O)[O-])C2=C(C#N)C#N [compound 1241] | — (compounds for which there was no clear down regulation even at 50 μg/ml)
12 | CC1CCN(C(=O)c2cccc3c2-c2ccccc2C3=O)CC1 [compound 1243] | 11 (compounds for which there was clear down regulation only at 50 μg/ml)
13 | Cc1cccc(C2(c3cccc(C)c3)OC(=O)c3ccccc32)c1 [compound 1308] | 12 (compounds for which there was clear down regulation at 5 μg/ml and 50 μg/ml)
14 | COCCCNC(=O)c1ccc2c(c1N)C(=O)c1ccccc1C2=O [compound 1337] | 11 (compounds for which there was clear down regulation only at 50 μg/ml)
15 | O=C1Nc2ccccc2Oc2ccc([N+](=O)[O-])cc21 [compound 1352] | 13 (compounds for which there was clear down regulation at 0.5 μg/ml, 5 μg/ml, and 50 μg/ml)
16 | Flunarizinehydrochloride [compound 312] | — (compounds for which there was no clear down regulation even at 50 μg/ml)
17 | Maprotilinehydrochloride [compound 346] | 11 (compounds for which there was clear down regulation only at 50 μg/ml)
18 | Metixene hydrochloride [compound 491] | 11 (compounds for which there was clear down regulation only at 50 μg/ml)
19 | Prochlorperazinedimaleate [compound 399] | 12 (compounds for which there was clear down regulation at 5 μg/ml and 50 μg/ml)
20 | Trifluoperazinedihydrochloride [compound 313] | 11 (compounds for which there was clear down regulation only at 50 μg/ml)
